Where “and” joins values, the source holds several entries; their conditions need not be identical. Identical values can stand only once.
How the values were obtained:
Type in all cases: cell-based, rat
[1] = test system: TH positive dopaminergic neurons of primary mesencephalic culture; assay: Neuroprotective effect on TH positive dopaminergic neuron survival following exposure to 6-OHDA; details: 6-OHDA 20 μM, 24 h, toxin alone
Method: This study investigated the neuroprotective effect of the plant extract of the invention on rat primary mesencephalic cultures following exposure to 6OHDA. […]
The midbrains were dissociated by trypsinisation for 20 min at 37° C. (Trypsin 0.05%, EDTA 0.02% (Batch 7310713, PanBiotech). The reaction was stopped by the addition of Dulbecco's modified Eagle's medium (DMEM, Batch 9710913, PanBiotech) containing DNAase I grade II (0.1 mg/mL, Batch H131108, PanBiotech) and 10% of foetal calf serum (FCS, Batch 41Q7218K, Gibco). Cells were then mechanically dissociated by 3 passages through a 10 mL pipette. Cells were then centrifuged at 180×g for 10 min at +4° C. on a layer of BSA (3.5%) in L15 medium. The supernatant was discarded and the cell pellets were re-suspended in a defined culture medium consisting of Neurobasal (Batch 1576979, Invitrogen, France) supplemented with 2% of B27 (Batch 1589889, Invitrogen), 2 mM of L-glutamine (Batch 8150713, PanBiotech), 2% of PS solution, 10 ng/mL of Brain-derived neurotrophic factor (Batch H140108, PanBiotech) and 1 ng/mL of Glial-Derived Neurotrophic Factor (Batch H130917, Pan Biotech) Viable cells were counted in a Neubauer cytometer using the trypan blue exclusion test. […]

[2] = test system: TH positive dopaminergic neurons of primary mesencephalic culture; assay: Neuroprotective effect on TH positive dopaminergic neuron survival following exposure to MPP+; details: MPP+ 4 μM, 48 h
Method: This study investigated the neuroprotective effect of the plant extract of the invention on rat primary mesencephalic cultures following exposure to 1-methyl-4-phenyl pyridinium (MPP^+).
In such assay, […] (BDNF) was used as standard molecule.
(§1) The mesencephalic neurons were cultivated as in preceding example.
On day 6 of culture, the medium was removed and fresh medium was added, without or with MPP^+ (Batch 092M4729V, Sigma, France) at 4 μM diluted in control medium. 6 wells per condition were assessed.
(§2) The cells were fixed, washed, permeabilized and non-specific sites were blocked.
The immunolabeled cultures were automatically examined with ImageXpress (Molecular Devices, United Kingdom) equipped with a LED at ×10 magnification. For each condition (6 culture wells), 20 automatically fields per well (representing ˜80% of the total surface of the well) were analyzed. The total number of TH neurons was automatically analyzed using MetaXpress software (Molecular Devices).
Data were expressed in percentage of control conditions (no MPP^+=100%) in order to express the MPP^+ injury. All values were expressed as mean+/−SEM (s.e.mean) of the 6 wells with statistical analyses on the different conditions (ANOVA followed by Dunnett's test when allowed, using GraphPad Prism software). […]

[3] = test system: TH positive dopaminergic neurons of primary mesencephalic culture; assay: Neuroprotective effect on TH positive dopaminergic neuron survival following exposure to rotenone; details: rotenone 10 nM, 24 hours, toxin alone
Method: as §1, §2
For each condition (6 culture wells), 20 automatically fields per well (representing ˜80% of the total surface of the well) were analyzed. The total number of TH neurons was automatically analyzed using MetaXpress software (Molecular Devices).

Molecule: NCCc1cc(O)c(O)cc1O [Composition 6-OHDA, 6-hydroxydopamine]
- cell death of TH positive neurons induced by the toxin [1]: > 25%

Molecule: C[n+]1ccc(-c2ccccc2)cc1 [MPP^+, 1-methyl-4-phenyl pyridinium]
- cell death of TH positive neurons induced by the toxin ([2]; toxin alone): > 35% and > 30%

Molecule: C=C(C)[C@H]1Cc2c(ccc3c2O[C@@H]2COc4cc(OC)c(OC)cc4[C@@H]2C3=O)O1 [Rotenone, rotenone]
- cell death of TH positive neurons induced by the toxin [3]: ~40%

B1: BDNF: Brain Derived Growth Factor (BDNF) used as standard molecule (protein, UniProt P23560 19-247, looked up)
Neurotrophic factor BDNF …: APMKEANIRGQGGLAYPGVRTHGTLESVNGPKAGSRGLTSLADTFEHVIEELLDEDQKVRPNEENNKDADLYTSRVMLSSQVPLEPPLLFLLEEYKNYLDAANMSMRVRRHSDPARRGELSVCDSISEWVTAADKKTAVDMSGGTVTVLEKVPVSKGQLKQYFYETKCNPMGYTKEGCRGIDKRHWNSQCRTTQSYVRALTMDSKKRIGWRFIRIDTSCVCTLTIKRGR
- protection from MPP+ induced injuries ([2]; 50 ng/mL): able to significantly protect cells

— US10596217B2, “Compositions containing a Withania somnifera extract incubated with a filamentous fungus of the Beauvaria genus” (Ethnodyne, priority 2015, dated 2020)
